Structures can show the parent of a compound that is named as a salt.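 96-well plates; 48 h exposure; 5 concentrations. Endpoints by linear interpolation between flanking doses. Not reached: highest tested concentration assigned. The concentration for 50% growth inhibition is given as GI50.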 Active and inactive are the calls of the source. Cut-off read from the data, not from the text of the source: active = GI50 up to about 1.1 µM and inactive = higher.
How the values were obtained:
Assay in all cases: DTP human tumour cell line panel, 48 h
RXF 393 = tested on: RXF 393
HT-29 = tested on: HT-29
SK-MEL-5 = tested on: SK-MEL-5
SK-OV-3 = tested on: SK-OV-3
SW-620 = tested on: SW-620
SNB-75 = tested on: SNB-75
A549 = tested on: A549
EKVX = tested on: EKVX
IGROV-1 = tested on: IGROV-1
HOP-92 = tested on: HOP-92
UACC-62 = tested on: UACC-62
SN12C = tested on: SN12C
SK-MEL-2 = tested on: SK-MEL-2
SF-539 = tested on: SF-539
UO-31 = tested on: UO-31
HOP-62 = tested on: HOP-62
NCI-H23 = tested on: NCI-H23
SR = tested on: SR

Measured: GI50

O=C1OC(CCCl)(c2ccccc2)CC1CN1CCOCC1 (stereo not given)
inactive: RXF 393 17.2 µM | HT-29 18.4 µM | SK-MEL-5 19.7 µM | SK-OV-3 > 100 µM | SW-620 17 µM | SNB-75 15.4 µM | A549 80.5 µM | EKVX 19.9 µM | IGROV-1 23.6 µM | HOP-92 16.6 µM | UACC-62 21 µM | SN12C 29.2 µM | SK-MEL-2 24.3 µM | SF-539 27.2 µM | UO-31 68.9 µM | HOP-62 50.5 µM | NCI-H23 8.95 µM

COC(=O)N/N=C(/CCN1CCCC1)CC(c1ccccc1)c1c(O)c2ccccc2oc1=O (stereo not given)
inactive: RXF 393 > 100 µM | HT-29 > 100 µM | SK-MEL-5 > 100 µM | SK-OV-3 > 100 µM | SW-620 > 100 µM | SNB-75 30.1 µM | A549 > 100 µM | EKVX > 100 µM | IGROV-1 > 100 µM | UACC-62 72.8 µM | SN12C > 100 µM | SK-MEL-2 > 100 µM | SF-539 > 100 µM | UO-31 61.4 µM | HOP-62 > 100 µM | NCI-H23 > 100 µM | SR > 100 µM

O=c1cc2n(c(=O)[nH]1)C1OC(C(O)C1O)[C@H]2CCO (stereo not given in full)
inactive: RXF 393 > 100 µM | HT-29 > 100 µM | SK-MEL-5 > 100 µM | SK-OV-3 > 100 µM | SW-620 > 100 µM | A549 > 100 µM | EKVX > 100 µM | IGROV-1 > 100 µM | HOP-92 > 100 µM | UACC-62 > 100 µM | SN12C > 100 µM | SK-MEL-2 > 100 µM | SF-539 > 100 µM | UO-31 > 100 µM | HOP-62 > 100 µM | NCI-H23 > 100 µM | SR > 100 µM

O=C(CC1(O)C(=O)Nc2c(Cl)ccc(Cl)c21)c1ccc(Cl)cc1Cl (stereo not given)
inactive: RXF 393 25 µM | HT-29 15.3 µM | SK-OV-3 21.9 µM | SW-620 14.1 µM | SNB-75 16.7 µM | A549 23.5 µM | EKVX 21.6 µM | IGROV-1 18.3 µM | HOP-92 21 µM | UACC-62 16.1 µM | SN12C 16.6 µM | SK-MEL-2 21.3 µM | SF-539 19.2 µM | UO-31 20.7 µM | HOP-62 24 µM | NCI-H23 19.9 µM

CCC1CCC2CCCC(C)N12 (stereo not given)
inactive: SW-620 > 100 µM | SNB-75 > 100 µM | A549 > 100 µM | EKVX > 100 µM | IGROV-1 > 100 µM | HOP-92 > 100 µM | UACC-62 > 100 µM | SN12C > 100 µM | SK-MEL-2 > 100 µM | SF-539 > 100 µM | UO-31 > 100 µM | HOP-62 > 100 µM | NCI-H23 > 100 µM | SR > 100 µM

O=C(/N=C(/Nc1ccccc1)SCCS/C(=N\C(=O)c1ccccc1)Nc1ccccc1)c1ccccc1
inactive: RXF 393 29.6 µM | HT-29 35.6 µM | SK-MEL-5 48.3 µM | SW-620 > 100 µM | SNB-75 29.5 µM | A549 65.2 µM | EKVX > 100 µM | IGROV-1 > 100 µM | HOP-92 16.8 µM | UACC-62 52.2 µM | SN12C 63.1 µM | SK-MEL-2 > 100 µM | SF-539 68.2 µM | UO-31 32.9 µM | HOP-62 86.5 µM | NCI-H23 59.8 µM

CC(=O)NNc1ncc(C(=O)/C=C/c2ccccc2C)s1
inactive: RXF 393 > 100 µM | HT-29 > 100 µM | SK-MEL-5 > 100 µM | SK-OV-3 > 100 µM | SW-620 > 100 µM | SNB-75 > 100 µM | A549 > 100 µM | EKVX > 100 µM | IGROV-1 > 100 µM | HOP-92 > 100 µM | UACC-62 > 100 µM | SK-MEL-2 > 100 µM | SF-539 > 100 µM | UO-31 > 100 µM | HOP-62 > 100 µM | NCI-H23 > 100 µM

COC(=O)C1=CCS(=O)(=O)C1
inactive: RXF 393 > 100 µM | HT-29 > 100 µM | SK-MEL-5 5.16 µM | SK-OV-3 > 100 µM | SW-620 > 100 µM | SNB-75 > 100 µM | A549 > 100 µM | EKVX > 100 µM | IGROV-1 > 100 µM | HOP-92 > 100 µM | UACC-62 > 100 µM | SN12C > 100 µM | SK-MEL-2 > 100 µM | SF-539 > 100 µM | UO-31 > 100 µM | HOP-62 > 100 µM | NCI-H23 > 100 µM

O=C(c1ccccc1)[C@H]1Nc2ccc(Cl)cc2[C@H]2c3ccccc3O[C@H]21
inactive: RXF 393 10.1 µM | HT-29 12.7 µM | SK-MEL-5 13.2 µM | SW-620 16.5 µM | SNB-75 12.4 µM | A549 14.6 µM | EKVX 15.2 µM | IGROV-1 17.7 µM | UACC-62 13.6 µM | SN12C 14.1 µM | SK-MEL-2 13.5 µM | SF-539 15 µM | UO-31 5.27 µM | HOP-62 18.1 µM | NCI-H23 14.2 µM | SR 16.5 µM

CC(=O)O[C@H]1CC2C=CC3C(CCC31)O2 (stereo not given in full)
inactive: RXF 393 > 100 µM | HT-29 > 100 µM | SK-OV-3 > 100 µM | SW-620 > 100 µM | SNB-75 > 100 µM | A549 > 100 µM | EKVX > 100 µM | IGROV-1 > 100 µM | UACC-62 > 100 µM | SN12C > 100 µM | UO-31 > 100 µM | HOP-62 > 100 µM | NCI-H23 > 100 µM

CC(C)/C=C1\CCC(CN2CCCC2)C1=O (stereo not given)
inactive: RXF 393 16 µM | HT-29 9.73 µM | SK-MEL-5 17.1 µM | SK-OV-3 > 100 µM | SW-620 2.44 µM | A549 13.8 µM | EKVX 20.8 µM | IGROV-1 25.7 µM | HOP-92 17.5 µM | UACC-62 20.6 µM | SN12C 18.7 µM | SK-MEL-2 20.7 µM | SF-539 18.7 µM | UO-31 18.5 µM | HOP-62 > 87.5 µM | NCI-H23 16.7 µM | SR 2.82 µM

N#CC(/C(=N/NC(N)=S)C(=O)Nc1cccc(Cl)c1)c1ccccc1 (stereo not given)
inactive: HT-29 > 100 µM | SK-MEL-5 > 100 µM | SK-OV-3 > 100 µM | SW-620 > 100 µM | SNB-75 38.8 µM | A549 > 100 µM | EKVX > 100 µM | IGROV-1 > 100 µM | HOP-92 > 100 µM | UACC-62 > 100 µM | SN12C > 100 µM | SK-MEL-2 > 100 µM | SF-539 > 100 µM | UO-31 > 100 µM | HOP-62 > 100 µM | NCI-H23 > 100 µM | SR > 100 µM

CCOc1cn(C2OC(CO)C(O)C2O)c(=O)[nH]c1=O (stereo not given)
inactive: RXF 393 > 100 µM | HT-29 > 100 µM | SK-MEL-5 > 100 µM | SK-OV-3 > 100 µM | SW-620 31.3 µM | SNB-75 > 100 µM | A549 > 100 µM | EKVX > 100 µM | IGROV-1 > 100 µM | HOP-92 > 100 µM | UACC-62 > 100 µM | SN12C > 100 µM | SK-MEL-2 > 100 µM | UO-31 > 100 µM | HOP-62 > 100 µM | NCI-H23 > 100 µM

CCCCCCCCc1cc2c(O)c(c1)Cc1cc(CCCCCCCC)cc(c1O)Cc1cc(CCCCCCCC)cc(c1O)Cc1cc(CCCCCCCC)cc(c1O)Cc1cc(CCCCCCCC)cc(c1O)Cc1cc(CCCCCCCC)cc(c1O)C2
inactive: HT-29 > 100 µM | SK-OV-3 > 100 µM | SW-620 > 100 µM | SNB-75 > 100 µM | A549 > 100 µM | IGROV-1 > 100 µM | HOP-92 > 100 µM | UACC-62 > 100 µM | SN12C > 100 µM | SK-MEL-2 > 100 µM | SF-539 > 100 µM | UO-31 > 100 µM | HOP-62 > 10 µM | NCI-H23 > 100 µM | SR > 100 µM

O=C1CC[C@@H](NC(=O)Cc2ccccc2)C(=O)N1
inactive: HT-29 > 100 µM | SK-MEL-5 > 100 µM | SK-OV-3 > 100 µM | SW-620 > 100 µM | SNB-75 > 100 µM | A549 > 100 µM | EKVX > 100 µM | IGROV-1 > 100 µM | HOP-92 > 100 µM | UACC-62 > 100 µM | SN12C > 100 µM | SK-MEL-2 > 100 µM | SF-539 > 100 µM | UO-31 > 100 µM | HOP-62 > 100 µM | NCI-H23 > 100 µM | SR > 100 µM

O=c1/c(=C/c2ccc(Cl)cc2Cl)sc2nc3ccccc3n12
inactive: RXF 393 > 100 µM | HT-29 > 100 µM | SK-MEL-5 > 100 µM | SK-OV-3 > 100 µM | SW-620 > 100 µM | SNB-75 > 100 µM | A549 > 100 µM | EKVX > 100 µM | IGROV-1 > 100 µM | HOP-92 > 100 µM | UACC-62 > 100 µM | SN12C > 100 µM | SK-MEL-2 > 100 µM | SF-539 > 100 µM | UO-31 > 100 µM | HOP-62 > 100 µM | NCI-H23 > 100 µM

Cc1nccc2c1[nH]c1cc(O)ccc12 [HARMOL HYDROCHLORIDE]
inactive: RXF 393 > 100 µM | HT-29 56.5 µM | SK-MEL-5 69.2 µM | SK-OV-3 > 100 µM | SW-620 39.1 µM | SNB-75 33 µM | A549 44.8 µM | EKVX 68.2 µM | IGROV-1 45.8 µM | HOP-92 27.5 µM | UACC-62 96.6 µM | SN12C 76.4 µM | SK-MEL-2 > 100 µM | SF-539 73.3 µM | UO-31 37.6 µM | HOP-62 91.6 µM | NCI-H23 76.7 µM

From ChEMBL document CHEMBL1201862, “PubChem BioAssay data set” (2004)
